Laboratory results reported in patent US9796985B2, “Compositions and method for modulating the sensitivity of plants to cytokinin” (Trustees of Dartmouth College, priority 2013, dated 2017).
Where a SMILES comes first, the peptide text is derived from it. The star is where a group is joined. Cbz = O=C(OCc1ccccc1)*

Legend:
[1] = tested on: ARR7 and ARR15; details: wild-type plants, one hour treatment with 100 nM t-zeatin, qRT-PCR
Description: (§1) Cytokinin Growth and Molecular Response Analyses. Hypocotyl and root growth analyses were performed according to known methods (Argyros, et al. (2008) Plant Cell 20(8):2102-2116) and hypocotyl and root lengths were measured using ImageJ software (version 1.32; National Institutes of Health). Root meristem size was determined via established methods (Perilli & Sabatini (2010) Methods Mol. Biol. 655:177-187). The apical meristem was visualized by bright field microscopy, with tissue sectioning, fixation, and staining performed according to known methods (Chiang, et al. (2012) Plant Physiol. 160(1):332-348). Total RNA isolation, cDNA production, and quantitative RT-PCR (qRT-PCR) were performed via established methods (Argyros, et al. (2008) supra). Transcript abundances were calculated using the comparative CT method, with 13-TUB3 (At5g62700) as the normalized control.
(§2) Plant Growth Conditions and Cytokinin Treatment. Seeds were surface-sterilized and cold-treated for 3 days in the dark at 4° C. to ensure uniform germination before being moved into the light. For molecular and physiological assays, seedlings were grown on medium containing 1× Murashige and Skoog (MS) salts with vitamins (Research Products International Corp.), 1% sucrose, and 0.8% phytoagar (Research Products International Corp.) at 22° C. under continuous white light (50 μE·m^−2·s^−1) unless specified otherwise. […]

[2] = tested on: dark-grown, wild-type seedlings; details: increasing concentrations of t-zeatin
Description: as §1, §2

[3] = tested on: proteasome; assay: Role of the proteasome in ARR stability, immunoblot of protoplasts; type: cell-based, Arabidopsis; details: 10 μM MG132, 3 hours

Compound	induction of ARR7 and ARR15 expression [1]	hypocotyl elongation [2]	protein level of ARR1 ([3]; protoplasts from ARR1-HA overexpression line)	protein level of ARR12 ([3]; protoplasts from ARR12-Myc overexpression line)
C/C(=C\CNc1ncnc2[nH]cnc12)CO [t-zeatin, 6-(4-hydroxy-3methylbut-trans-2-enylamino) purine]	two- to four-fold	inhibition of hypocotyl elongation	–	–
CC(C)C[C@@H](C=O)NC(=O)[C@H](CC(C)C)NC(=O)[C@H](CC(C)C)NC(=O)OCc1ccccc1 [MG132] (Cbz-Leu-Leu-Leu-aldehyde)	–	–	increased	increased
